Measured values: patent US20090076067A1, “PHARMACEUTICAL COMPOSITION COMPRISING AZARHODACYANINE COMPOUND AS ACTIVE INGREDIENT” (priority 2005, published 2009)
In brackets after ≈: the same amount, converted by molar mass. Where two headings read alike, the source gives them in different places.

Columns and labels:
[1] = Rat L6 cell proliferation inhibition test; format: cell-based; settings: read-out: EC50 cytotoxicity L6
Experimental: (§1) Rat-derived L6 cells (rat skeletal myoblast cell) were used for this test. […] The sample was cultured under CO2 concentration 5% and temperature 37° C. Either the composition of the invention or control was dissolved into DMSO, to prepare test solutions having predefined concentration.
(§2) The samples were precultured until logarithmic growth phase was reached. Then the culture was transferred to each well in a 96-well culture plate, and either test solution containing test compound at predefined concentration or DSMO without compound was added. The test solution was duplicated.
(§3) The plate was cultured in an incubator for 72 hours, to examine proliferation inhibition activity. The activity was examined as follows. Alamar Blue water solution 10 μL was added to each well, and culture was continued for 2 hours. Next, the culture plate was mounted on a fluorescence microplate reader (Spectramax Gemeni XS; Molecular Devices Corporation, U.S.), and irradiated with excitation wavelength 536 nm to determine fluorescence at 588 nm. The survival rate of L6 cells in the test solution sample and control sample was calculated.
(§4) Proliferation inhibition rate(%)={(C−A)/(B−A)}×100
(§5) A: Initial cell count B: Cell count in control after 3 days C: Cell count in test solution after 3 days

[2] = tested on: Plasmodium Falciparum k1 strain; assay: Chloroquine-resistant tropical malaria protozoa proliferation inhibition screening test; format: cell-based; settings: for Selective toxicity: EC50 rat L6 cells / EC50 Chloroquine-resistant malaria protozoa; for EC50: Plasmodium falciparum
Experimental: In this experiment, Plasmodium Falciparum k1 strain protozoa were used. The medium used in the experiment was filter-sterilized RPMI-1640 medium. To the medium human serum was added to achieve 5% concentration. The protozoa was cultured under condition of O2 concentration 3%, CO2 concentration 4%, N2 concentration 93%, and temperature 37° C.
The cultured malaria infected red blood cells were collected by centrifugation, diluted with non-infected red blood cells, to achieve initial infection rate 0.15%. The hematocrit was 2.5%.
To each well in a 96-well culture plate, 200 μL malaria infected culture was added, and either test solution containing test compound at predefined concentration or DMSO having no test compound was added. Each test solution was prepared in duplicate. After 48 hours culture under 37° C., hypoxanthine labeled with radioactive tritium (^3H) of 0.5 μCi was added to each well. After culturing under same condition for 24 hours, the product was collected on a glass fiber filter and washed. The intensity of radiation was measured by Beta plate liquid scintillation counter (Wallac Inc.), to determine malaria protozoa infection rate in test compound samples and control samples.
Using the malaria protozoa infection rate, the proliferation inhibition rate was calculated according to the following equation to determine 50% proliferation inhibition concentration (EC50).
(§6) Proliferation inhibition rate(%)={1−(b−a)/(c−a)}×100
(§7) a: initial infection rate b: infection rate of test compound solution c: infection rate of the control

[3] = tested on: Plasmodium berghei NK 65 strain; assay: animal or person; format: in vivo; settings: for Survival days (mean survival days, treatment group minus control group) / Recovery Rate (suppression): dose 25 mg/kg/d intraperitoneally, 4 days; for Recovery Rate (suppression): P. berghei infected ICR mice
Source text: For a test to evaluate therapeutic effect of the compound, 4-day suppressive test which is commonly used for in vivo test to evaluate activity of anti-malaria compound was used. In this experiment, rodent malaria protozoa (Plasmodium berghei NK 65 strain) were used. The infected blood was collected from 5-weeks age (SPF) ICR strain male mouse which were infected intraperitoneally and successively cultured. From the caudal vein of the infected mouse, blood was collected to calculate infection rate. After confirming that infection rate was adequately elevated (10% to 20% infection), the malaria infected blood was collected from the heart of the mouse. The infection rate and count of the red blood cells (cells/mL) were calculated. The infected red blood cell was diluted with PBS buffer to achieve […] protozoa per 0.2 mL dose. The infected cells were injected to the caudal vein of uninfected mouse (ICR strain, male, 5-weeks age) to cause infection. Five mice were made into one group, and the test compound was administered in predefined concentration. From 2 hours after infection, the compound was administered every 24 hours for straight 4 days.
The compound of the invention to be used in this test was dissolved in saline (Otsuka Pharmaceutical Co., Ltd.) to obtain test solution of predefined concentration. When the compound was not dissolved in saline, it was dissolved in SSV (saline containing 0.5% sodium=carboxymethyl cellulose, 0.5% benzyl alcohol, 0.4% Tween 80) to prepare test solution. For the control group (non-treatment group), only saline (Otsuka) was administered. Positive controls S-1 to S-5 were dissolved in saline (Otsuka) or SSV in predetermined concentration to prepare test solution. When the compound was not dissolved in saline, it was dissolved in SSV. After measuring weight of each mouse, the dose for each mouse was calculated to achieve 5.0 to 40 mg concentration for weight1 kg.
Five mice were made into one group, and the test compound was administered intraperitoneally at predefined concentration. From 2 hours after infection, the compound was administered every 24 hours for straight 4 days. Subsequent to the 24 hours after last treatment, blood was collected from the tail of the mouse to prepare thin layer smear in order to count malaria protozoa infection in the treatment group and the control group under microscope. The mice showing maximum value and minimum value were excluded from the average calculation (average was calculated for three mice), to determine malaria protozoa infection rate (Parasitemia).
Using malaria protozoa infection rate thus calculated, recovery rate obtained from the test compound (suppression) was determined.
Recovery rate: suppression(%)=(b−a)/b×100 a: Protozoa infection rate in the treatment group b: Protozoa infection rate in the control group Mean survival days: MSD(day)=c−d c: Average days from the initial treatment (date of malaria infection) to the date of death for the treatment group (5 mice) d: Average days from the date of malaria infection to the date of death for the non-treatment (control) group (5 mice) […]
Tables 5 to 7 illustrate the recovery rate (%) and survival days (day) of malaria infected mice treated with intraperitoneal injection of the test compound and the control compound at predefined concentration. The meaning of symbols in the table is as follows.

[4] = tested on: Leishmania donovani (MHOM/ET/67/L82 strain); assay: Leishmania protozoa proliferation inhibition screening test; format: cell-based; settings: amastigote, 72 hours, Alamar blue
Experimental: In this experiment, Leishmania donovani (MHOM/ET/67/L82 strain) was used. The protozoa were successively cultured in Syrian Golden hamsters to obtain amastigote. The medium used in the experiment was SM medium having heat-treated fetal bovine serum 10% added, and pH prepared to 5.4. The culture was conducted under CO2 concentration 5% and temperature 37° C.
Either the compound of the invention or a positive control (miltefosine) was dissolved into DMSO to prepare test solution having predefined concentration. To each well of a 96-well culture plate, medium containing predetermined number of protozoa was added and the culture was pre-treated. The concentration of amastigote was determined by CASY cell analyze system (Scharfe GMBH Co., Germany). Subsequently, either test solution containing compound of the invention in predefined concentration or DMSO without compound was added. The test solution was duplicated.
The plate was cultured in an incubator for 72 hours, and the proliferation inhibition activity was examined. The activity was determined as follows. To each well, 10 μL Alamar blue aqueous solution was added, then cultured again for 2 hours. Then the culture plate was mounted on a fluorescence microplate reader (Spectramax Gemeni XS; Molecular Devices Corporation, U.S), and irradiated 536 nm excitation wavelength to determine […] at 588 nm. The leishmania infection rate of the sample containing the test compound and that of the control sample was calculated.
(§8) Using the protozoa infection rate thus obtained, the proliferation inhibition rate was calculated according to the following equation to determine 50% proliferation inhibition concentration (EC50).
as §6, §7

[5] = tested on: Rat-derived L6 cells (rat skeletal myoblast cell); assay: Rat L6 cell proliferation inhibition test; format: cell-based; settings: Alamar Blue
Experimental: as §1, §2, §3, §4, §5

[6] = tested on: Trypanosoma brucei rhodensiense (STIB 900 strain); assay: African trypanosoma protozoa proliferation inhibition screening test; format: cell-based; settings: STIB 900 bloodstream form, 72 hours, Alamar blue
Experimental: In this experiment, bloodstream form trypomastigote of Trypanosoma brucei rhodensiense (STIB 900 strain) was used. The medium used in the experiment was prepared as follows: to filter-sterilized MEM medium, 25 mM N-2-hydroxyethylpiperazine-2-ethane sulfonate (HEPES), 1 g/L glucose, 1% MEM nonessential amino acid, 0.2 mM 2-mercaptoethanol, 2 mM pyruvic calcium salt, 0.1 mM hypoxanthine, and 15% heat-treated horse serum were added. The protozoa was cultured under atmosphere of CO2 concentration 5% and temperature 37° C.
Either the compound of the invention or a positive control (melarsoprol) was dissolved into dimethylsulfoxide (DMSO) to prepare test solution having predefined concentration. To each well in a 96-well culture plate, medium containing 8×10^3 protozoa, and either test solution containing the test compound at predefined concentration or DMSO without compound was added. Then medium was added to achieve 100 μL. The test solution was duplicated.
The culture plate was cultured in an incubator for 72 hours, and the proliferation inhibition activity was examined. The activity was determined as follows. To each well, 10 μL Alamar blue water solution was added, then the plate was again cultured for 2 hours. Then the culture plate was mounted on a fluorescence microplate reader (Spectramax Gemeni XS; Molecular Devices Corporation, U.S.), and irradiated with 536 nm excitation wavelength to determine fluorescence at 588 nm. The trypanosoma infection rate of the sample containing the test composition and that of the control sample was calculated.
as §8, §6
(§9) a: initial infection rate b: infection rate of the test compound solution c: infection rate of the control

[7] = tested on: Trypanosoma cruzi (Tulahuen C2C4 strain); assay: American trypanosoma protozoa proliferation inhibition screening test; format: cell-based; settings: Tulahuen C2C4 strain in rat L6 cells, 96 hours, CPRG/Nonidet
Experimental: In this experiment, amastigote and trypomastigote of Trypanosoma cruzi (Tulahuen C2C4 strain) infected to rat L6 cells were used. The medium used in the experiment was prepared as follows: to RPMI 1640 medium containing L6 cells, L-glutamine (200 mM) and fetal bovine serum was added to achieve concentration of 1% and 10%, respectively. The culture was conducted under CO2 concentration 5% and temperature 37° C.
Either the compound of the invention or a positive control (benznidazole) was dissolved into DMSO to prepare test solution having predefined concentration. To each well in a 96-well culture plate, medium containing 5×10^3 protozoa was added and precultured for 48 hours. After replacing the medium, either the test solution containing compound of the invention in predefined concentration or DMSO without compound was added. The test solution was duplicated.
The plate was cultured in an incubator for 96 hours, and the proliferation inhibition activity was examined. The activity was determined as follows. To each well, 50 μL CPRG/Nonidet was added, then left for 2 to 6 hours. Then the culture plate was mounted on an absorption microplate reader to determine absorption at 540 nm. The trypanosoma infection rate of the sample containing the test compound and that of the control sample was calculated.
as §8, §6, §9

[8] = L6 cells (rat skeletal myoblasts), Table 1, Alamar Blue
[9] = chloroquine-resistant K1 strain, 3H-hypoxanthine uptake, read-out: EC50 P. falciparum K1
[10] = chloroquine-resistant K1 strain, 3H-hypoxanthine uptake

Structure (SMILES): CCn1c(=O)/c(=C2\SCCN2C)s/c1=C1\S/C(=N\c2scc[n+]2C)N(C(C)C)C1=O [Compound B-35]
- EC50 at 72 h [1, 8]: 21.8 µg/mL
- Selective toxicity [2]: 3630
- EC50 [2, 9]: 0.006 µg/mL
- inhibition in vivo at 25 mg/kg/day ([3]; Plasmodium berghei, ip, 96 h, read-out: Recovery Rate (suppression)): 63.5%
- Survival days (mean survival days, treatment group minus control group) [3]: 3.5 days

Structure (SMILES): CCCCCCCCCCCCCCCCOP(=O)([O-])OCC[N+](C)(C)C [Miltefosine, reference compound]
- EC50 ([4]; Leishmania donovani, read-out: EC50 Leishmania donovani): 0.11 µg/mL (≈ 0.27 µM)

Structure (SMILES): CCN1C(=O)/C(=c2/s/c(=C3/C=CC=CN3C)c(=O)n2CC)S/C1=N\c1sc2cc(F)ccc2[n+]1C [Compound B-32]
- EC50 cytotoxicity L6 ([5]; Table 1, 72 hours): 15.88 µg/mL
- EC50 cytotoxicity L6 ([5]; Table 2, 72 hours): 15.88 µg/mL
- EC50 cytotoxicity L6 ([5]; Table 4, 72 hours): 15.88 µg/mL
- EC50 P. falciparum K1 [2, 10]: 0.0162 µg/mL
- Survival days (mean survival days, treatment group minus control group) [3]: 4.8 days
- Recovery Rate (suppression) [3]: 79.5%
- EC50 Trypanosoma brucei rhod. [6]: 0.1585 µg/mL
- EC50 Leishmania donovani [4]: 0.2195 µg/mL

Structure (SMILES): CCN1C(=O)/C(=c2\nc3c(s2)=CC=CN3C)S/C1=N\c1cccc[n+]1C.[Cl-] [Compound A-22]
- EC50 at 72 h [1, 8]: > 90 µg/mL
- Selective toxicity [2]: >782
- EC50 [2, 9]: 0.0115 µg/mL

Structure (SMILES): CCn1c(=O)/c(=c2\nc3c(o2)=CC=CN3C)s/c1=C1\S/C(=N\c2scc[n+]2C)N(Cc2ccccc2)C1=O [Compound B-22]
- EC50 cytotoxicity L6 ([5]; Table 1, 72 hours): >90 µg/mL
- EC50 P. falciparum K1 [2, 10]: 0.005 µg/mL
- Survival days (mean survival days, treatment group minus control group) [3]: 9.0 days
- Recovery Rate (suppression) [3]: 72.4%
- EC50 Trypanosoma brucei rhod. [6]: 0.068 µg/mL

Structure (SMILES): CCN(CC)CCCC(C)Nc1ccnc2cc(Cl)ccc12 (stereo not shown) [Chloroquine, reference compound]
- EC50 at 72 h ([1]; Table 1, rat L6 cells, Alamar Blue): 60 µg/mL (≈ 188 µM)
- Selective toxicity [2]: 1300
- EC50 ([2]; K1, read-out: EC50 P. falciparum K1): 0.047 µg/mL (≈ 0.147 µM)

Structure (SMILES): C=CCN1C(=O)/C(=c2/s/c(=C3/SCCN3C)c(=O)n2CC)S/C1=N\c1sc2cc(Cl)ccc2[n+]1C [Compound B-39]
- EC50 cytotoxicity L6 ([5]; Table 2, 72 hours): 3.72 µg/mL
- EC50 cytotoxicity L6 ([5]; Table 3, 72 hours): 3.72 µg/mL
- EC50 cytotoxicity L6 ([5]; Table 4, 72 hours): 3.72 µg/mL
- Survival days (mean survival days, treatment group minus control group) [3]: 4.5 days
- Recovery Rate (suppression) [3]: 77.7%
- EC50 Trypanosoma cruzi [7]: 0.141 µg/mL
- EC50 Trypanosoma brucei rhod. [6]: 0.141 µg/mL
- EC50 Leishmania donovani [4]: 0.049 µg/mL

Structure (SMILES): O=C(Cn1ccnc1[N+](=O)[O-])NCc1ccccc1 [Benznidazole, reference compound]
- EC50 ([7]; Trypanosoma cruzi, read-out: EC50 Trypanosoma cruzi): 0.87 µg/mL (≈ 3.34 µM)
